In the Kinase Knowledgebase extract (Sharma et al. 2016) one finds apoptosis data, which are given here for 3 molecules.

Each structure is given as a SMILES string.

Sequence of MAPK14 (human) (Q16539 whole entry, looked up): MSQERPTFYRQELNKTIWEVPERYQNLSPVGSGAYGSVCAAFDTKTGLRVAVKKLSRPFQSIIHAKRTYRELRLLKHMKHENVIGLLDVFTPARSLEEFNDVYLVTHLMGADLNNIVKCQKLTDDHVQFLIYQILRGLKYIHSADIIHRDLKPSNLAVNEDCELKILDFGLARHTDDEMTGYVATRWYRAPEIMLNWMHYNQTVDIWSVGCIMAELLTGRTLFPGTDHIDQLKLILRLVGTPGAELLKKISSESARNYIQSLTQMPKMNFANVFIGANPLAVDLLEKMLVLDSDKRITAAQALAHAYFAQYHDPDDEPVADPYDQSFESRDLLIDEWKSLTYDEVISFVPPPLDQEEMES

This assay concerns the target MAPK14 (human) (UniProt Q16539). Nature of the assay: Apoptotic Activity (Eosinophils). To be noted: concentration not given here.
In the case of `COc1ccc2c(c1)c(CC(=O)O)c(C)n2C(=O)c1ccc(Cl)cc1`, the apoptosis was found to be 27.7%.
Molecule `CC(C(=O)O)c1ccc(-c2ccccc2)c(F)c1` (stereo not drawn) gave an apoptosis of 32.5%.
As to `CS(=O)(=O)Nc1cc2c(cc1-c1ccc(F)c(S)c1F)C(=O)CC2`, the apoptosis came out at 28.9%.
